Assay results: US20220079912A1, “ANTICANCER FORMULATION” (University of Mississippi, priority 2018, published 2022)

Assays:
[1] = tested on: T98G human glioblastoma cells; test: Lactic acid accumulation in cell culture medium; type: cell-based; conditions: three hour period; for inhibition of lactic acid production (accumulation): different concentrations, FIG. 6, FIG. 7
Source text: Acidification of the cell culture medium occurs because of the enhanced use of glycolysis by transformed cells (and resulting increase in lactic acid production). This led us to investigate whether GH reduced lactic acid levels in the cell culture medium.

T98G cells [2] = test: Glucose transport (2-NBDG accumulation); type: cell-based, human; conditions: treated for one hour followed by 2-NBDG for one hour
B16 cells [3] = test: Glucose transport (2-NBDG accumulation); type: cell-based, mouse; conditions: B16, treated for one hour followed by 2-NBDG for one hour
MDA-MB-231 cells = test: Glucose transport (2-NBDG accumulation); type: cell-based, human; conditions: MDA-MB-231, treated for one hour followed by 2-NBDG for one hour
Source text: Phloretin, a known glucose transport inhibitor, was used as a positive control. Accumulation of 2-NDGB was inhibited by phloretin by 54% in T98G cells, by 31% in B16 cells and by 74% in MDA-MB-231 cells. The first panel for each cell line represents unstained cells, the second stained with 2-NBDG for one hour, the third treated with GH for one hour followed by 2-NBDG for one hour and the fourth treated with phloretin for one hour followed by 2-NBDG for one hour.

B16 cells [4] = test: Lactic acid export (intracellular lactic acid levels); type: cell-based, mouse; conditions: 3 hours, FIG. 4
Description: To prevent the buildup of lactic acid within the cell a family of monocarboxylate transporters (MCT) functions to transport lactic acid out of the cell (10). To determine if GH inhibits lactic acid export from the cell, and in this manner inhibits the accumulation of lactic acid in the cell culture medium, intracellular lactic acid levels were measured. If GH inhibited lactic acid export, treatment of cells with GH would result in the increase in intracellular lactic acid levels. As a positive control the MCT1 inhibitor AZD3965 was used.

TXNIP mRNA = test: Differential gene expression analysis (RNA-Seq) in T98G cells; type: cell-based, human; conditions: 2 hours, GH 8 μM, 2-DG 25 mM, Ph 100, minus = reduced, plus = increase, NC = no change
Source text: (§1) GH inhibits expression of TXNIP and ARRDC4 mRNAs. […] Since the transcription factors (MondoA/Mlx complex) regulating the expression of the TXNIP gene is thought to be controlled by intermediates in the upper portion of the glycolytic pathway (12), GH may be negatively impacting this portion of glycolysis. Reduction in the levels of these intermediates by GH would prevent activation of the MondoA/Mlx transcription complex and would result in suppression of TXNIP transcription and TXNIP mRNA levels. Both of these gene products (TXNIP and ARRDC4) are thought to suppress glucose transport by enhancing degradation of glucose transporters (12).

T98G cells [5] = test: Combination cytotoxicity with mitochondrial complex I inhibitors (% cell survival)
Source text: Example 2: Gnetin H In Combination with Mitochondrial Complex I Inhibitors. […] The plus signs above the combination treatment bars indicates the value of % cell survival if the anti-proliferative effect was additive.
In FIGS. 9 A-B., the plus signs are placed above the combination treatment bars at the % cell survival value if the anti-proliferative effect was additive. […] Both T98G and MDA-MB-231 cells lack functional p53 but B16 are p53 wild type.
Example 4: Peony Seed extract. […] T98G cells were treated with different concentrations of purified GH (numbers indicate μM) or PSE (numbers indicate μg/ml) alone or in combination with a Paw Paw (PP) extract (2 μg/ml) for 48 hrs (FIG. 12 A). The plus signs are placed above the combination treatment bars at the % cell survival value if the anti-proliferative effect was additive. […] T98G cells were treated with different concentrations of purified GH or PSE in combination with a Paw Paw extract (2 μg/ml) for 48 hrs (FIG. 12 B).

ARRDC4 mRNA = test: Differential gene expression analysis (RNA-Seq) in T98G cells; type: cell-based, human; conditions: 2 hours, GH 8 μM, 2-DG 25 mM, Ph 100, minus = reduced, plus = increase, NC = no change
Source text: as §1

TXNIP protein levels [6] = test: Western blot of TXNIP protein, T98G cell line; type: cell-based, human; conditions: FIG. 15, FIG. 17; for TXNIP protein levels, agent alone: GH 8 μM 6 hrs or 3 hrs, 2-DG 25 mM, OXA 25 mM, BPX 25 μM, DCA 25 mM, 6 hr
Source text: (§2) AMPK activation has been previously shown to phosphorylate and cause the degradation of TXNIP during energy stress (13).

TXNIP protein levels [7] = test: Western blot of TXNIP protein, MDA-MB-231 cell line; type: cell-based, human; conditions: FIG. 16, FIG. 18; for TXNIP protein levels, agent alone: GH 8 μM 6 hrs or 3 hrs, 2-DG 25 mM, OXA 25 mM, BPX 25 μM, DCA 25 mM, 6 hr
Source text: as §2

`Oc1ccc(C=Cc2cc(O)cc(O)c2)cc1` [Res, Resveratrol] was tested, and the “inhibition of lactic acid production (accumulation)” value [1] was “did not inhibit lactic acid production”.
With `O=C(CCc1ccc(O)cc1)c1c(O)cc(O)cc1O` [phloretin, Phloretin, reference compound] the “inhibition of accumulation of 2-NBDG” value (T98G cells [2]) was 54%, the “inhibition of accumulation of 2-NBDG” value (B16 cells [3]) was 31% and the “inhibition of accumulation of 2-NBDG” value (MDA-MB-231 cells) was 74%.
With `Cc1[nH]nc(C(F)(F)F)c1Cc1sc2c(c1C(=O)N1C[C@](C)(O)CO1)c(=O)n(C)c(=O)n2C(C)C` [AZD3965, reference compound] the “accumulation of intracellular lactic acid above control values” (B16 cells [4]) was ~4 fold.
`[H]/N=C(/N)N/C(=N/[H])NCCc1ccccc1` [Ph, phenformin, reference compound] was tested, and the “TXNIP mRNA fold change” value (TXNIP mRNA) was −2.5 fold.
For `Oc1ccc(/C=C/c2cc(O)cc3c2[C@@H](c2cc(O)cc(O)c2)[C@H](c2ccc(O)cc2)O3)cc1` (relative stereo) [Vin, trans-ε viniferin, reference compound], the “inhibition of lactic acid production” value ([1]; 40 μM, FIG. 6) was 40% and the “synergistic cytotoxicity in combination with phenformin (Ph) at 100 μM” value (T98G cells [5]) was “did not mimic GH activity”.
`O=CC[C@@H](O)[C@H](O)[C@H](O)CO` [2-DG, 2-deoxyglucose] was tested, and the “synergistic cytotoxicity in combination with phenformin (Ph) at 100 μM” value (T98G cells [5]) was “not synergistically cytotoxic”, the “ARRDC4 mRNA fold change” value (ARRDC4 mRNA) was “+3 fold” and the “TXNIP protein levels, in combination with Ph” value (“TXNIP protein levels … with Ph” for short) (TXNIP protein levels [6]) was “reduction of TXNIP protein levels”. The “TXNIP protein levels, agent alone” value (TXNIP protein levels [6]) was “increased TXNIP protein levels”, the “TXNIP protein levels … with Ph” value (TXNIP protein levels [7]) was “reduction of TXNIP protein levels” and the “TXNIP protein levels, agent alone” value (TXNIP protein levels [7]) was “increased TXNIP protein levels”.
For `CC(=O)N[C@@H](CS)C(=O)O` [NAC, n-acetylcysteine], the “inhibition of lactic acid production (accumulation)” value [1] was “did not inhibit lactic acid production”.
In the case of `O=C(O)C(=O)CBr` [BPX, 3-bromopyruvate], the “TXNIP protein levels … with Ph” value (TXNIP protein levels [6]) is reported as “reduced TXNIP protein levels”, the “TXNIP protein levels, agent alone” value (TXNIP protein levels [6]) is reported as “do not substantially reduce TXNIP protein levels” and the “TXNIP protein levels … with Ph” value (TXNIP protein levels [7]) is reported as “reduced TXNIP protein levels”. For the same molecule, the “TXNIP protein levels, agent alone” value (TXNIP protein levels [7]) was “do not substantially reduce TXNIP protein levels”.
